From ChEMBL document CHEMBL4680133, “Novel nitroimidazole derivatives evaluated for their trypanocidal, cytotoxic, and genotoxic activities” (Eur J Med Chem, 2020)

Legend:
Trypanosoma cruzi [1] = experiment: Antitrypanosomal activity against bloodstream form of Trypanosoma cruzi Y trypomastigotes infected in African green monkey Vero cells assessed as increase in parasite lysis measured after 24 hrs by Neubauer chamber method; format: functional, organism-based
[2] = Mutagenicity in Salmonella typhimurium TA102 measured after 20 mins in presence of S9 fraction by microsome assay; format: toxicity, subcellular; conditions: salmonella enterica subsp. enterica serovar typhimurium, s9, 20 min, dose 5-100 µg
[3] = Cytotoxicity against mouse RAW264.7 cells assessed as reduction in cell viability measured after 24 hrs by WST1 assay; format: cell-based
RAW264.7 [4] = experiment: Genotoxicity in mouse RAW264.7 cells assessed as mitotic index at 188 uM measured after 24 hrs by micronucleus test (reference value: 40 to 249); format: toxicity, cell-based; conditions: raw264.7, 24 h
[5] = Genotoxicity in mouse RAW264.7 cells assessed as survival at 188 uM measured after 24 hrs by micronucleus test (reference value: 100%); format: toxicity, cell-based; conditions: read-out: Survival
[6] = Selectivity index, ratio of GI50 for mouse RAW264.7 cells assessed as reduction in cell viability measured after 24 hrs by WST1 assay to IC50 for antitrypanosomal activity against Trypanosoma cruzi Y axenic amastigotes infected in African green monkey Vero cells; format: toxicity; conditions: read-out: Selectivity Index
HepG2 [7] = experiment: Genotoxicity in human HepG2 assessed as mitotic index at 1880 uM measured after 24 hrs by micronucleus test (reference value: 61 to 108); format: toxicity, cell-based; conditions: hepg2, 24 h
[8] = Cytotoxicity against human HepG2 cells assessed as reduction in cell viability measured after 24 hrs by WST1 assay; format: cell-based
RAW264.7 [9] = experiment: Genotoxicity in mouse RAW264.7 cells assessed as mitotic index at 3760 uM measured after 24 hrs by micronucleus test (reference value: 40 to 249); format: toxicity, cell-based; conditions: raw264.7, 24 h
RAW264.7 [10] = experiment: Genotoxicity in mouse RAW264.7 cells assessed as mitotic index at 376 uM measured after 24 hrs by micronucleus test (reference value: 40 to 249); format: toxicity, cell-based; conditions: raw264.7, 24 h
[11] = Mutagenicity in Salmonella typhimurium TA97 measured after 20 mins in absence of S9 fraction by microsome assay; format: toxicity; conditions: salmonella enterica subsp. enterica serovar typhimurium, microsomes, dose 5-100 µg
RAW264.7 [12] = experiment: Cytotoxicity against mouse RAW264.7 cells at 18.8 to 376 uM measured after 24 hrs by LDH assay; format: cell-based; conditions: raw264.7, 24 h, dose 18.8-376 µM
[13] = Genotoxicity in mouse RAW264.7 cells assessed as survival at 3760 uM measured after 24 hrs by micronucleus test (reference value: 100%); format: toxicity, cell-based; conditions: read-out: Survival
HepG2 [14] = experiment: Genotoxicity in human HepG2 assessed as mitotic index at 3760 uM measured after 24 hrs by micronucleus test (reference value: 61 to 108); format: toxicity, cell-based; conditions: hepg2, 24 h
[15] = Selectivity index, ratio of GI50 for mouse RAW264.7 cells assessed as reduction in cell viability measured after 24 hrs by WST1 assay to IC50 for antitrypanosomal activity against bloodstream form of Trypanosoma cruzi Y trypomastigotes infected in African green monkey Vero cells; format: toxicity; conditions: read-out: Selectivity Index
[16] = Mutagenicity in Salmonella typhimurium TA97 assessed as revertant/ug measured after 20 mins in presence of S9 fraction by microsome assay; format: toxicity, subcellular; conditions: salmonella enterica subsp. enterica serovar typhimurium, s9, 20 min
[17] = Genotoxicity in human HepG2 assessed as survival at 376 uM measured after 24 hrs by micronucleus test (reference value: 100%); format: toxicity, cell-based; conditions: HepG2 cells, read-out: Survival
RAW264.7 [18] = experiment: Genotoxicity in mouse RAW264.7 cells assessed as mitotic index at 1880 uM measured after 24 hrs by micronucleus test (reference value: 40 to 249); format: toxicity, cell-based; conditions: raw264.7, 24 h
[19] = Mutagenicity in Salmonella typhimurium TA100 measured after 20 mins in absence of S9 fraction by microsome assay; format: toxicity; conditions: salmonella enterica subsp. enterica serovar typhimurium, microsomes, dose 5-100 µg
[20] = Toxicity in Salmonella typhimurium YG1021 at 5 to 100 ug/plate after 20 mins by colony counting method; conditions: salmonella enterica subsp. enterica serovar typhimurium, dose 5-100 µg
[21] = Toxicity in Salmonella typhimurium YG1024 at 5 to 100 ug/plate after 20 mins by colony counting method; conditions: salmonella enterica subsp. enterica serovar typhimurium, dose 5-100 µg
RAW264.7 [22] = experiment: Genotoxicity in mouse RAW264.7 cells assessed as number of micronucleated cells at 3760 uM measured after 24 hrs by micronucleus test (reference value: 12 to 15); format: toxicity, cell-based; conditions: raw264.7, 24 h
HepG2 [23] = experiment: Genotoxicity in human HepG2 assessed as mitotic index at 188 uM measured after 24 hrs by micronucleus test (reference value: 61 to 108); format: toxicity, cell-based; conditions: hepg2, 24 h
[24] = Mutagenicity in Salmonella typhimurium TA97 assessed as revertant/ug measured after 20 mins in absence of S9 fraction by microsome assay; format: toxicity; conditions: salmonella enterica subsp. enterica serovar typhimurium, microsomes
[25] = Genotoxicity in human HepG2 assessed as survival at 3760 uM measured after 24 hrs by micronucleus test (reference value: 100%); format: toxicity, cell-based; conditions: HepG2 cells, read-out: Survival
[26] = Selectivity index, ratio of GI50 for human HepG2 cells assessed as reduction in cell viability measured after 24 hrs by WST1 assay to IC50 for antitrypanosomal activity against bloodstream form of Trypanosoma cruzi Y trypomastigotes infected in African green monkey Vero cells; format: toxicity; conditions: read-out: Selectivity Index
RAW264.7 [27] = experiment: Genotoxicity in mouse RAW264.7 cells assessed as number of micronucleated cells at 376 uM measured after 24 hrs by micronucleus test (reference value: 12 to 15); format: toxicity, cell-based; conditions: raw264.7, 24 h
RAW264.7 [28] = experiment: Genotoxicity in mouse RAW264.7 cells assessed as number of micronucleated cells at 1880 uM measured after 24 hrs by micronucleus test (reference value: 12 to 15); format: toxicity, cell-based; conditions: raw264.7, 24 h
[29] = Mutagenicity in Salmonella typhimurium TA98 measured after 20 mins in absence of S9 fraction by microsome assay; format: toxicity; conditions: salmonella enterica subsp. enterica serovar typhimurium, microsomes, dose 5-100 µg
[30] = Mutagenicity in Salmonella typhimurium TA100 measured after 20 mins in presence of S9 fraction by microsome assay; format: toxicity, subcellular; conditions: salmonella enterica subsp. enterica serovar typhimurium, s9, 20 min, dose 5-100 µg
HepG2 [31] = experiment: Genotoxicity in human HepG2 assessed as number of micronucleated cells at 3760 uM measured after 24 hrs by micronucleus test (reference value: 14 to 18); format: toxicity, cell-based; conditions: hepg2, 24 h
[32] = Mutagenicity in Salmonella typhimurium TA100 assessed as revertant/ug measured after 20 mins in presence of S9 fraction by microsome assay; format: toxicity, subcellular; conditions: salmonella enterica subsp. enterica serovar typhimurium, s9, 20 min
[33] = Mutagenicity in Salmonella typhimurium TA100 assessed as revertant/ug measured after 20 mins in absence of S9 fraction by microsome assay; format: toxicity; conditions: salmonella enterica subsp. enterica serovar typhimurium, microsomes
HepG2 [34] = experiment: Genotoxicity in human HepG2 assessed as number of micronucleated cells at 1880 uM measured after 24 hrs by micronucleus test (reference value: 14 to 18); format: toxicity, cell-based; conditions: hepg2, 24 h
HepG2 [35] = experiment: Genotoxicity in human HepG2 assessed as number of micronucleated cells at 376 uM measured after 24 hrs by micronucleus test (reference value: 14 to 18); format: toxicity, cell-based; conditions: hepg2, 24 h
HepG2 [36] = experiment: Genotoxicity in human HepG2 assessed as number of micronucleated cells at 188 uM measured after 24 hrs by micronucleus test (reference value: 14 to 18); format: toxicity, cell-based; conditions: hepg2, 24 h
Trypanosoma cruzi [37] = experiment: Antitrypanosomal activity against Trypanosoma cruzi Y axenic amastigotes infected in African green monkey Vero cells after 24 hrs by MTT assay; format: functional, organism-based
[38] = Mutagenicity in Salmonella typhimurium TA98 measured after 20 mins in presence of S9 fraction by microsome assay; format: toxicity, subcellular; conditions: salmonella enterica subsp. enterica serovar typhimurium, s9, 20 min, dose 5-100 µg
[39] = Mutagenicity in Salmonella typhimurium TA97 measured after 20 mins in presence of S9 fraction by microsome assay; format: toxicity, subcellular; conditions: salmonella enterica subsp. enterica serovar typhimurium, s9, 20 min, dose 5-100 µg
HepG2 [40] = experiment: Genotoxicity in human HepG2 assessed as mitotic index at 376 uM measured after 24 hrs by micronucleus test (reference value: 61 to 108); format: toxicity, cell-based; conditions: hepg2, 24 h
RAW264.7 [41] = experiment: Genotoxicity in mouse RAW264.7 cells assessed as number of micronucleated cells at 188 uM measured after 24 hrs by micronucleus test (reference value: 12 to 15); format: toxicity, cell-based; conditions: raw264.7, 24 h
[42] = Mutagenicity in Salmonella typhimurium TA102 measured after 20 mins in absence of S9 fraction by microsome assay; format: toxicity; conditions: salmonella enterica subsp. enterica serovar typhimurium, microsomes, dose 5-100 µg
[43] = Genotoxicity in mouse RAW264.7 cells assessed as survival at 1880 uM measured after 24 hrs by micronucleus test (reference value: 100%); format: toxicity, cell-based; conditions: read-out: Survival
[44] = Mutagenicity in Salmonella typhimurium YG1021 at 5 to 100 ug/plate after 20 mins by microsome assay; format: toxicity; conditions: salmonella enterica subsp. enterica serovar typhimurium, microsomes
[45] = Genotoxicity in human HepG2 assessed as survival at 1880 uM measured after 24 hrs by micronucleus test (reference value: 100%); format: toxicity, cell-based; conditions: HepG2 cells, read-out: Survival
[46] = Genotoxicity in human HepG2 assessed as survival at 188 uM measured after 24 hrs by micronucleus test (reference value: 100%); format: toxicity, cell-based; conditions: HepG2 cells, read-out: Survival
[47] = Genotoxicity in mouse RAW264.7 cells assessed as survival at 376 uM measured after 24 hrs by micronucleus test (reference value: 100%); format: toxicity, cell-based; conditions: read-out: Survival
[48] = Mutagenicity in Salmonella typhimurium YG1024 at 5 to 100 ug/plate after 20 mins by microsome assay; format: toxicity; conditions: salmonella enterica subsp. enterica serovar typhimurium, microsomes, dose 5-100 µg
HepG2 [49] = experiment: Cytotoxicity against human HepG2 cells at 376 uM measured after 24 hrs by LDH assay; format: cell-based; conditions: hepg2, 24 h
[50] = Selectivity index, ratio of GI50 for human HepG2 cells assessed as reduction in cell viability measured after 24 hrs by WST1 assay to IC50 for antitrypanosomal activity against Trypanosoma cruzi Y axenic amastigotes infected in African green monkey Vero cells; format: toxicity; conditions: read-out: Selectivity Index

## Cn1cnc([N+](=O)[O-])c1-n1cc(-c2ccccc2)nn1
Trypanosoma cruzi [1]
  IC50: 25.2 µM

## CCOC(=O)c1cn(-c2c([N+](=O)[O-])ncn2C)nn1
[2]
  Activity: Toxic
[3]
  GI50 at 24 h: > 376 µM
RAW264.7 [4]
  Activity_index: 58
[5]
  viability at 24 h, 188 µM: 99%
Trypanosoma cruzi [1]
  IC50: 45.3 µM
[6]
  selectivity ratio at 24 h: > 0.95
HepG2 [7]
  Activity_index: 60
[8]
  GI50 at 24 h: > 376 µM
RAW264.7 [9]
  Activity_index: 78
RAW264.7 [10]
  Activity_index: 80
[11]
  Activity: Toxic
RAW264.7 [12]
  Activity: Non-Toxic
[13]
  viability at 24 h, 3760 µM: 90%
HepG2 [14]
  Activity_index: 52
[15]
  selectivity ratio at 24 h: > 8.3
[16]
  Activity: 0.714 µg
[17]
  viability at 24 h, 376 µM: 99%
RAW264.7 [18]
  Activity_index: 100
[19]
  Activity: Toxic
[20]
  Activity: Toxic
[21]
  Activity: Toxic
RAW264.7 [22]
  Activity: 13
HepG2 [23]
  Activity_index: 55
[24]
  Activity: 2.19 revertants/µg
[25]
  viability at 24 h, 3760 µM: 90%
[26]
  selectivity ratio at 24 h: > 8.3
RAW264.7 [27]
  Activity: 10
RAW264.7 [28]
  Activity: 13
[29]
  Activity: Non-Toxic
[30]
  Activity: Toxic
HepG2 [31]
  Activity: 35
[32]
  Activity: 3.36 revertants/µg
[33]
  Activity: 3.54 revertants/µg
HepG2 [34]
  Activity: 32
HepG2 [35]
  Activity: 21
HepG2 [36]
  Activity: 17
Trypanosoma cruzi [37]
  IC50: 393 µM
[38]
  Activity: Non-Toxic
[39]
  Activity: Toxic
HepG2 [40]
  Activity_index: 50
RAW264.7 [41]
  Activity: 11
[42]
  Activity: Toxic
[43]
  viability at 24 h, 1880 µM: 95%
[44]
  Activity: Non-Toxic
[45]
  viability at 24 h, 1880 µM: 97%
[46]
  viability at 24 h, 188 µM: 99%
[47]
  viability at 24 h, 376 µM: 99%
[48]
  Activity: Non-Toxic
HepG2 [49]
  Activity: Toxic
[50]
  selectivity ratio at 24 h: > 0.95

## Cn1cnc([N+](=O)[O-])c1-n1ccnc1
Trypanosoma cruzi [1]
  IC50: > 2000 µM

## Cn1cnc([N+](=O)[O-])c1-n1cc(C2=CCCCC2)nn1
Trypanosoma cruzi [1]
  IC50: 41.7 µM

## COC(=O)c1cn(-c2c([N+](=O)[O-])ncn2C)nn1
Trypanosoma cruzi [1]
  IC50: 31.3 µM

## Cn1cnc([N+](=O)[O-])c1-n1cncn1
Trypanosoma cruzi [1]
  IC50: 354 µM
